Like-named read-outs stand apart in the source and are kept apart here.
Legend:
[1] = cited from earlier work
[2] = cited from earlier work; remark: listed apart in the source
herpes virus = settings: depending on the strain of herpes virus; cited from earlier work
herpes infected tissue = settings: S. Sacks, Abstract 97, 1988 Interscience Conference; cited from earlier work
HSV 1 infected cells = experiment: uptake of [125I]IVaraU by HSV 1 infected cells compared with uninfected and HSV 2 infected cells; assay type: cell-based
Method: (§1) Upright roller tubes were seeded with 1.5×10^5 HFF (Human Foreskin Fibroblast) cells/tube in a volume of 1.0 ml of Minimal Essential Medium (MEM) with added 5% FCS (Fetal Calf Serum) and incubated at 37° C. overnight. The growth media was poured off and replaced with 1.0 ml of viral growth media (Med 199 Hank's salts with 2% FCS) containing ^125 I-IVaraU (2.3×10^6 cpm/ml). 100 μl of virus (diluted to appropriate concentration in viral growth media) was added to assay tubes. In this case, a multiplicity of infection of 1.0 was used. 100 μl of viral growth media was added to the control (viral uninoculated) tubes.
The tubes were centrifuged 5000 g×30 minutes at 37° C., incubated at 37° C., 5% CO2 for 6 hours, and the media was then poured off. The tubes were washed with 4×2 mls warm "cell" phosphate buffered saline (PBS), and 1.0 ml of trypsin-versene solution was added and the tubes were incubated at 37° C. for 5-10 minutes. The cell sheets were removed and transferred to 4 ml polystyrene tubes. The gamma activity was counted with a Gamma counter. […]

HSV-2 (ATCC Strain G) = experiment: [125I]IVaraU uptake into HFF cells infected with HSV-2, gamma activity per tube; assay type: cell-based, HSV-2; HFF (Human Foreskin Fibroblast) cells; settings: HSV-2 (ATCC Strain G) infected HFF cells, MOI 1.0, 2.3×10^6 cpm/ml, 6 hours, 37° C.
Method: as §1
(§2) The tubes were centrifuged 5000 g×30 minutes at 37° C., incubated at 37° C., 5% CO2 for 6 hours, and the media was then poured off. The tubes were washed with 4×2 mls warm "cell" phosphate buffered saline (PBS), and 1.0 ml of trypsin-versene solution was added and the tubes were incubated at 37° C. for 5-10 minutes. The cell sheets were removed and transferred to 4 ml polystyrene tubes. The gamma activity was counted with a Gamma counter.

HSV1 strain KOS = experiment: [125I]IVaraU uptake in rabbit brain infected with HSV1, gamma counts of brain blocks; assay type: in vivo, HSV1; New Zealand White rabbits
Method: The rabbit brains were infected with HSV1and then [^125 I]IVaraU was injected. The infection was located by assaying for herpes antigen and also by considering the brain anatomy involved. The assay was performed for [^125 I]IVaraU by gamma ray counts on segments cut from the brain.
INFECTION: Three New Zealand White female rabbits ([…], 2.5-5.0 kg) were anaesthetized by standard intramuscular injections of ketamine and xylazine. A 3.5 inch french tomcat catheter was introduced into the right nostril and 100 μL of the virus inoculation solution was released onto the right cribiform plate (this is a non-invasive means to create a brain infection). The virus inoculation solution consisted of 3.7×10^6 plaque forming units per mL HSV1 strain KOS suspended in commercial media of the type "199 with Hanks' salts". Two rabbits denoted "A" and "B" received the virus suspension exactly as described. A third rabbit denoted "C" was a "control"; it received 100 μL "199 with Hanks' salts" but no virus. The three rabbits were returned to their cages; infection was allowed to develop for 5 days before the injection of [^125 I]VaraU was carried out. INJECTION OF DRUG: 5 days following HSV1 inoculation, each rabbit was given 0.1 to 0.2 millicuries [^125 I]IVaraU suspended in 1 mL standard phosphate buffered saline PBS). The drug was administered by injection into the right marginal ear vein. SACRIFICE OF THE RABBITS: 24H after the [^125 I]IVaraU injection, the rabbits were sacrificed by an overdose of the drug Somnotol (T.M.) (MTC Pharmaceuticals). Following death, each rabbit was perfused with 300-400 mL PBS introduced into the ascending aorta. (The perfusion procedure served to remove blood from vessels in the brain and the body in general.)
The skull was dissected; the brain was cut out and removed. The brain was then sectioned into thirty 0.5 cm thick coronal blocks. The cutting and numbering of the blocks was carried out in a systematic way with respect to brain anatomy. Brain blocks were immersed and stored in 10% formalin. COUNTING OF ^125 I ACTIVITY IN BRAIN BLOCKS: Each block was weighed and then counted in a well-type gamma ray counter. The "counts per minute per gram" was calculated for each block of tissue for rabbits "A", "B" and "C". From each "cpm per gram" in infected rabbits "A" and "B" was subtracted the "cpm per gram" in the corresponding brain block from the uninfected rabbit "C". (The typical value of "cpm per gram" was about 20,000 cpm per gram in rabbit "C".)

[3] = system: HFF (Human Foreskin Fibroblast) cells; experiment: [125I]IVaraU uptake into uninoculated HFF cells (control), gamma activity per tube; assay type: cell-based; settings: 2.3×10^6 cpm/ml, 6 hours, 37° C.
Method: as §1, §2

HSV-1 (ATCC Strain F) = experiment: [125I]IVaraU uptake into HFF cells infected with HSV-1, gamma activity per tube; assay type: cell-based, HSV-1; HFF (Human Foreskin Fibroblast) cells; settings: HSV-1 (ATCC Strain F) infected HFF cells, MOI 1.0, 2.3×10^6 cpm/ml, 6 hours, 37° C.
Method: as §1, §2

[4] = system: herpes simplex virus 1 (HSV1); experiment: in vivo; parameters: species or system HSV1; A/J mice
Source text: (§3) This example measured the biodistribution of [^125 I]-IVaraU in the bodies of mice infected with HSV throughout the entire body. The brain was emphasized. Various uninfected controls were included to make the interpretation clear.
(§4) […] strain A/J mice were used in all: (i) with [^125 I]IVaraU, 20 mice received HSV1 and 20 mice were uninfected; and (ii) with [^125 I]NaI (a control compared to IVaraU), again 20 mice received HSV1 and 20 mice were uninfected.
(§5) INFECTION: Seven days prior to injection of the drug, each A/J mouse was inoculated by scratching the lip and applying a suspension of herpes simplex virus 1 (HSV1); this was the Kastrukoff murine-adapted strain of HSV1. This inoculation technique is a literature technique which has been established to cause herpes foci of herpes infection in the brains of over 99% of mice so inoculated. See Kastrukoff LF, Lau AS, and Puterman ML. J Gen Virol 67 (1986) 613-621. The HSV1 inoculation may be considered to take place at time "zero minus seven days". ADMINISTRATION OF THE RADIOPHARMACEUTICAL: The mice were divided into four experimental groups based on the two variables +/- HSV1, and IVaraU/NaI. The infected mice were being compared to non-infected mice. The radiopharmaceutical ([^125 I]IVaraU or [^125 I]NaI) was diluted to give 1μ Curie per 100 μL. 100 μL was then injected into the tailvein of each mouse. (Injection may be considered to take place at "time zero".) ANALYSIS OF INDIVIDUAL BODY ORGANS: At times 1h, 4h, 24h, and 48h, 5 mice were taken from each experimental group and sacrificed by exsanguination (the carotid artery was severed with a surgical scalpel). Blood was collected. Each animal was dissected, and the following organs were removed: brain, liver, kidney, pancreas, spleen, stomach, heart, lung, and muscle. Each organ or tissue specimen was weighed and then ^125 I activity was counted in a gamma ray counter. From the data weight, ^125 I, and ^125 I injected dose result values of "% dose per gram" were calculated for the different tissue specimens.

in vivo = experiment: in vivo; parameters: species or system HSV1; A/J mice; settings: mouse, in vivo, iv, 1 μCurie in 100 μL i.v. tail vein, read-out: brain uptake, % dose per gram in entire brain
Source text: as §3, §4, §5

O=c1[nH]c(=O)n([C@@H]2O[C@H](CO)[C@@H](O)[C@@H]2O)cc1/C=C/Br [BrVaraU, (E)-5(2 bromo vinyl)-arabinofuranosyl uracil]
metabolic stability in vivo [1]: appeared metabolically stable in vivo

O=c1[nH]c(=O)n([C@@H]2O[C@H](CO)[C@@H](O)[C@@H]2O)cc1/C=C/Cl [ClVaraU]
potency in vivo per unit weight [2]: less potent in vivo

O=c1[nH]c(=O)n([C@@H]2O[C@H](CO)[C@@H](O)[C@@H]2O)cc1/C=C/F [FVaraU]
potency in vivo per unit weight [2]: less potent in vivo

O=c1[nH]c(=O)n([C@@H]2O[C@H](CO)[C@@H](O)[C@@H]2O)cc1/C=C/I [IVaraU]
concentration effectively inhibiting herpes virus (herpes virus): approximately 1×10^-9 g/mL
potency in vivo per unit weight [2]: highly potent in vivo per unit weight
metabolic stability in vivo [1]: appeared metabolically stable in vivo

O=c1[nH]c(=O)n([C@@H]2O[C@H](CO)[C@@H](O)[C@@H]2O)cc1/C=C/[123I] [[^123 I]IVaraU]
concentrated in herpes infected tissue (herpes infected tissue): concentrated in herpes infected tissue

O=c1[nH]c(=O)n([C@@H]2O[C@H](CO)[C@@H](O)[C@@H]2O)cc1/C=C/[125I] [[^125 I]IVaraU]
uptake by HSV 1 vs HSV 2 infected cells (HSV 1 infected cells; HSV 1 vs HSV 2 infected cells): HSV 1 infected cells took up more radio compound than HSV 2 infected cells
specific uptake by HSV 1 infected cells (HSV 1 infected cells; vs uninfected cells): taken up specifically by HSV 1 infected cells, as compared with uninfected cells
Activity/Tube (Average) (HSV-2 (ATCC Strain G)): 14,462 cpm
(corrected) activities in brain regions (HSV1 strain KOS; infected rabbits A and B minus uninfected C, forebrain): higher in the forebrain, especially in the olfactory lobes
activities towards the hindbrain (HSV1 strain KOS; infected rabbits, corrected): approached background
activity in right olfactory lobe vs trigeminal ganglia and Level 1 (HSV1 strain KOS; infected rabbits, corrected): higher than in the trigeminal ganglia and Level 1
activity in right vs left olfactory lobe (HSV1 strain KOS; infected rabbits, corrected, virus given in right nostril): higher in the right olfactory lobe than the left
typical cpm per gram in brain blocks of uninfected rabbit C (HSV1 strain KOS; uninfected rabbit "C", 24H after 0.1 to 0.2 millicuries i.v.): about 20,000 cpm per gram
Activity/Tube (Average) [3]: 1,332 cpm
Activity/Tube (Average) (HSV-1 (ATCC Strain F)): 59,914 cpm
brain uptake Ratio infected/uninfected ([4]; 1H): 1.18
brain uptake Ratio infected/uninfected ([4]; 4H): 1.57
brain uptake Ratio infected/uninfected ([4]; 24H): 15.8
brain uptake Ratio infected/uninfected ([4]; 48H): 36.2
tissue uptake at 1 h (in vivo; Infected): 1.49 %ID/g
tissue uptake at 4 h (in vivo; Infected): 0.36 %ID/g
tissue uptake at 24 h (in vivo; Infected): 0.0379 %ID/g
tissue uptake at 48 h (in vivo; Infected): 0.0181 %ID/g
tissue uptake at 1 h (in vivo; Uninfected): 1.27 %ID/g
tissue uptake at 4 h (in vivo; Uninfected): 0.229 %ID/g
tissue uptake at 24 h (in vivo; Uninfected): 0.0024 %ID/g
tissue uptake at 48 h (in vivo; Uninfected): 0.0005 %ID/g

Source: patent US5248771A, “Process for preparing no-carrier-added radiohalogenated vinyl nucleosides” (Triumf, priority 1991, dated 1993)
